Several values for one entry are separate records, joined by “and”; a condition that tells them apart may be missing. Identical values can stand only once.
Tests used:
human Slack = molecular target: T1, human Slack (Homo sapiens, UniProt Q5JUK3); assay: FluxOR potassium ion channel assay in HEK-Slack cells; assay type: cell-based
T1 construct: host or cells: HEK293
T1 sequence (Q5JUK3 1-1230): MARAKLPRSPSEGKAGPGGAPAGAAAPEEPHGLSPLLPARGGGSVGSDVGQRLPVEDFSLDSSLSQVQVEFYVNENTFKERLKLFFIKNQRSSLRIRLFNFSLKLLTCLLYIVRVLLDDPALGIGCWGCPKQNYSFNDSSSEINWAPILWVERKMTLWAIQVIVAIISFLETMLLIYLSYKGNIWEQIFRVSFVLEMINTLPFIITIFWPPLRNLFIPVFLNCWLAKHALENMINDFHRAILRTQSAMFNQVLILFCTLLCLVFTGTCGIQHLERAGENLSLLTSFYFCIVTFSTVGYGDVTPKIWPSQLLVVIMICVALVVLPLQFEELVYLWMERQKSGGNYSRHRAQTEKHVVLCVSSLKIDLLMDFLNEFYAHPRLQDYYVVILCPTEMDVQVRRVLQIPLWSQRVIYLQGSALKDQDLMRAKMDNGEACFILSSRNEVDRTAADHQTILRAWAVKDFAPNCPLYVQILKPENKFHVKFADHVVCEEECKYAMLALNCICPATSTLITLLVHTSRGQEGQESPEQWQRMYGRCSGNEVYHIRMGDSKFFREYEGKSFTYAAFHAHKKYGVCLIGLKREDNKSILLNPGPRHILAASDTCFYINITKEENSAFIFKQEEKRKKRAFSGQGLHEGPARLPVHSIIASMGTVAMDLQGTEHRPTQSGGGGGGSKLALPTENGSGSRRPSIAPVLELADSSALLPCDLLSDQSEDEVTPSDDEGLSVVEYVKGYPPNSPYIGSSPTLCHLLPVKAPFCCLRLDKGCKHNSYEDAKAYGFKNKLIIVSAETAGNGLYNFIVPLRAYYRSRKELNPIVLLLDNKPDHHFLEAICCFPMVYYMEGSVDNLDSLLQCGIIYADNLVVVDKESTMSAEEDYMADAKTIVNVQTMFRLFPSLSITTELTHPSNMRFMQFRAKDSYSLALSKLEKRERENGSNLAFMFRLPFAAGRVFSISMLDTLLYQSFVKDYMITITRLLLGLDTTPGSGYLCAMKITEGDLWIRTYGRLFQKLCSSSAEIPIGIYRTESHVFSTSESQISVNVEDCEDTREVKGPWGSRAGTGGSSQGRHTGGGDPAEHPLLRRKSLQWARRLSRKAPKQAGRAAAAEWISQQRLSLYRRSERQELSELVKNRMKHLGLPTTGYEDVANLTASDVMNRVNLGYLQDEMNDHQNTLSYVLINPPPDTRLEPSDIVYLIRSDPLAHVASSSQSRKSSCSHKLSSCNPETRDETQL
Experimental: The functional activity of this series of compounds against human Slack was determined using a cell‐based FluxOR potassium ion channel assay in cultured HEK293 cells stably expressing human Slack (herein referred to as HEK‐Slack cells) and a Na^+‐free assay buffer to prevent compound‐independent Slack activation by monovalent cations.^[ [14], [24] ^] […] Of the 114 newly synthesized compounds, 31 acted as Slack activators to varying extents. Accordingly, we deemed eight of these as the most interesting candidates.
To determine the Slack‐activating efficacy and potency of the novel compounds, a commercial FluxOR potassium ion channel assay (#10 017; Invitrogen) was used. HEK‐Slack cells were plated at a density of 50 000 cells per well on a poly‐D‐lysine coated (75 µg mL^−1, Sigma–Aldrich) 96‐well, black‐walled microplate with clear bottom (#655 090; Greiner Bio‐One) in DMEM (100 µL per well) containing 10% FBS and 1% penicillin/streptomycin 24 h prior to assaying. In the initial experiments shown in Figure S3A–F (Supporting Information), HEK‐Slack cells were plated at a density of 100 000 cells/well 48 h prior to the assay. On the day of the experiment, the cells were loaded with FluxOR dye according to the manufacturer's protocol. A Na^+‐free assay buffer, adjusted to pH 7.4 with KOH, containing 140 mM choline chloride, 5 mM KCl, 2 mM CaCl2, 2 mM MgSO4, 10 mM HEPES, and 5.55 mM glucose was used. To reduce background fluorescence, all assay components were complemented with a 10% BackDrop Background Suppressor (#B10511; Invitrogen).
All compounds were prepared as a 333 mM stock in DMSO and diluted on the experimental day to a final concentration of 100, 50, 25, 12.5, 6.25, 3.125, or 1.5625 µM in an assay buffer with DMSO adjusted to 0.03%. Before treatment, the cells were washed, and the medium was exchanged for the assay buffer. In a total volume of 90 µL per well, the cells were then incubated for 30 min at 37 °C with compounds at the indicated concentrations, or 0.03% DMSO alone as the vehicle. […] Fluorescence was measured using an Infinite M200 microplate reader (Tecan) with excitation at 485 nm (9 nm bandwidth) and emission at 525 nm (20 nm bandwidth) in the bottom read mode. First, the baseline fluorescence of the individual wells was established. Thereafter cells were stimulated with 20 µL Tl2SO4 (5 mM) solution injected at 100 µL s^−1, and fluorescence was further recorded for 100 s. Assays were run in triplicate. For all time points, the ratio of fluorescence to baseline fluorescence was calculated first for individual wells, and the average was then used.
Dose‐response curves comprising six concentrations were obtained in triplets using fluorescence/fluorescenceBaseline ratios at the 100th s.

mice = assay: Vertical pole test; assay type: in vivo, mouse; settings: 15 min after dosing
Experimental: As a prerequisite for interpreting itch behavior experiments, we first tested motor function after systemic dosing.
Mice were placed on a rotarod treadmill (Ugo Basile, Italy) at increasing speed (4–40 rpm over 300 s) and trained for 4–5 consecutive days. Only mice that reached 300 s without falling off during the training sessions were included in the experiment. In the vertical pole test, the mice were placed head‐upward on top of a vertical pole with a rough surface (diameter, 1 cm; height, 40 cm), and the time until the animals reached the ground was recorded (cut‐off time 20 s). Only mice that reached the ground within 10 s in the baseline measurements were included in the experiment. […] The means of three trials at each time point were calculated for further analyses.

[1] = HEK-Slack cells, Na+-free assay buffer, mean (95% confidence interval)

Structure (SMILES)	Emax (human Slack) [%]	EC50 (human Slack; [1])	motor function, vertical pole test (mice; 3–30 mg i.p.)	EC50 (human Slack; first preliminary experiments, Na+-free buffer with 2 mM Ca2+, 2 mM Mg2+ and 0.03% DMSO) [µM]	motor function, vertical pole test (mice; dose of ≥ 0.39 mg kg−1 i.p.)
O=C(O)COCCN1CCN(C2=Nc3ccccc3Oc3ccc(Cl)cc32)CC1 [Compound 6]	96.2	30 µM and 30.3 µM	did not impair motor function		
CN1CCN(C2=Nc3ccccc3Oc3ccc(Cl)cc32)CC1 [Loxapine, reference compound]	100	20.7 µM		23.4	markedly reduced the ability of the mice to perform

Reference: PMC11022729 (Advanced Science, 2024)
